Test results: patent US20160050923A1, “N-SUBSTITUTED ACYL-IMINO-PYRIDINE COMPOUNDS AND DERIVATIVES FOR COMBATING ANIMAL PESTS” (BASF SE, priority 2013, published 2016)

Legend:
Format in all cases: in vivo
Aphis craccivora = assay: Cowpea aphid (Aphis craccivora) spray test on potted cowpea plants; conditions: 72 h, read-out: mortality in comparison with untreated controls
Experimental: B.4 Cowpea Aphid (Aphis craccivora)
The active compound was dissolved at the desired concentration in a mixture of 1:1 (vol:vol) distilled water: acetone. Surfactant (Alkamuls® EL 620) was added at a rate of 0.1% (vol/vol). The test solution was prepared at the day of use.
Potted cowpea plants were colonized with approximately 50-100 aphids of various stages by manually transferring a leaf tissue cut from infested plant 24 hours before application. Plants were sprayed after the pest population has been recorded. Treated plants were maintained on light carts at about 28° C. Percent mortality was assessed after 72 hours.

Nilaparvata lugens = assay: Rice brown plant hopper (Nilaparvata lugens) test on sprayed rice seedlings; conditions: 72 h, read-out: mortality in comparison with untreated controls
Experimental: B.8 Rice Brown Plant Hopper (Nilaparvata lugens)
(§1) Rice seedlings were cleaned and washed 24 hours before spraying. The active compounds was formulated in 50:50 acetone:water (vol:vol) and 0.1% vol/vol surfactant (EL 620) was added. Potted rice seedlings were sprayed with 5 ml test solution, air dried, placed in cages and inoculated with 10 adults. Treated rice plants were kept at about 28-29° C. and relative humidity of about 50-60%. Percent mortality was recorded after 72 hours.

Myzus persicae = assay: Green peach aphid (Myzus persicae) spray test on infested bell pepper plants; conditions: 120 h, read-out: mortality in comparison with untreated controls
Experimental: B.1 Green Peach Aphid (Myzus persicae)
The active compounds were formulated by a Tecan liquid handler in 100% cyclohexanone as a 10,000 ppm solution supplied in tubes. The 10,000 ppm solution was serially diluted in 100% cyclohexanone to make interim solutions. These served as stock solutions for which final dilutions were made by the Tecan in 50% acetone:50% water (v/v) into 5 or 10 ml glass vials. A nonionic surfactant (Kinetic®) was included in the solution at a volume of 0.01% (v/v). The vials were then inserted into an automated electrostatic sprayer equipped with an atomizing nozzle for application to plants/insects.
Bell pepper plants at the first true-leaf stage were infested prior to treatment by placing heavily infested leaves from the main colony on top of the treatment plants. Aphids were allowed to transfer overnight to accomplish an infestation of 30-50 aphids per plant and the host leaves were removed. The infested plants were then sprayed by an automated electrostatic plant sprayer equipped with an atomizing spray nozzle. The plants were dried in the sprayer fume hood, removed, and then maintained in a growth room under fluorescent lighting in a 24-hr photoperiod at about 25° C. and about 20-40% relative humidity. Aphid mortality on the treated plants, relative to mortality on untreated control plants, was determined after 5 days.

Megoura viciae = assay: Vetch aphid (Megoura viciae) broad bean leaf disk microtiter test; conditions: foliar, 120 h, read-out: mortality in comparison with untreated controls
Experimental: B.2 Vetch Aphid (Megoura viciae)
For evaluating control of vetch aphid (Megoura viciae) through contact or systemic means the test unit consisted of 24-well-microtiter plates containing broad bean leaf disks.
The compounds were formulated using a solution containing 75% v/v water and 25% v/v DMSO. Different concentrations of formulated compounds were sprayed onto the leaf disks at 2.5 μl, using a custom built micro atomizer, at two replications.
After application, the leaf disks were air-dried and 5-8 adult aphids were placed on the leaf disks inside the microtiter plate wells. The aphids were then allowed to suck on the treated leaf disks and were incubated at about 23±1° C. and about 50±5% relative humidity for 5 days. Aphid mortality and fecundity was then visually assessed.

Nephotettix virescens = assay: Rice green leafhopper (Nephotettix virescens) test on sprayed rice seedlings; conditions: 72 h, read-out: mortality in comparison with untreated controls
Experimental: B.7 Rice Green Leafhopper (Nephotettix virescens)
as §1, with “compounds were” for “compounds was”, “acetone:water (vol:vol),” for “acetone:water (vol:vol)”

Dichromothrips corbetti = assay: Orchid thrips (Dichromothrips corbetti) floral-immersion test; conditions: 72 h, read-out: mortality in comparison with untreated controls
Experimental: B.6 Orchid Thrips (Dichromothrips corbetti)
Dichromothrips corbetti adults used for bioassay were obtained from a colony maintained continuously under laboratory conditions. For testing purposes, the test compound is diluted in a 1:1 mixture of acetone:water (vol:vol), plus 0.01% vol/vol Alkamuls® EL 620 surfactant.
Thrips potency of each compound was evaluated by using a floral-immersion technique. Plastic petri dishes were used as test arenas. All petals of individual, intact orchid flowers were dipped into treatment solution and allowed to dry. Treated flowers were placed into individual petri dishes along with about 20 adult thrips. The petri dishes were then covered with lids. All test arenas were held under continuous light and a temperature of about 28° C. for duration of the assay. After 3 days, the numbers of live thrips were counted on each flower, and along inner walls of each petri dish. The percentmortality was recorded 72 hours after treatment.

CSCC(=O)/N=c1\ccccn1Cc1ccc(Cl)nc1 [E1-9, N-[1-[(6-chloro-3-pyridyl)methyl]-2-pyridylidene]-2-methylsulfanyl-acetamide]
≥ 75%: mortality at 500 ppm (Aphis craccivora) | mortality at 500 ppm (Nilaparvata lugens) | mortality at 2500 ppm (Myzus persicae) | mortality at 2500 ppm (Megoura viciae) | mortality at 500 ppm (Nephotettix virescens)

CS(=O)(=O)CC(=O)N=c1ccccn1Cc1ccc(Cl)nc1 [E1-10, N-[1-[(6-chloro-3-pyridyl)methyl]-2-pyridylidene]-2-methylsulfonyl-acetamide]
≥ 75%: mortality at 500 ppm (Aphis craccivora) | mortality at 500 ppm (Nilaparvata lugens) | mortality at 2500 ppm (Myzus persicae) | mortality at 2500 ppm (Megoura viciae) | mortality at 500 ppm (Nephotettix virescens) | mortality at 500 ppm (Dichromothrips corbetti)
